Patent US20090215782A1, “Use of PDE-5 Inhibitors for Endothelial Repair of Tissues Impaired by Trauma or Disease” (priority 2005, published 2009)

Legend:
[1] = tested on: haematological and bone marrow tissues; details: chronic administration; cited from earlier work
[2] = tested on: circulating endothelial progenitor cells (EPCs); test: Concentration of circulating EPCs (CD34/AC133 double positive) in peripheral blood by flow cytometry after oral Vardenafil 20 mg, placebo crossover; format: in vivo, human; details: healthy men, mean±SD
Experimental: 10 healthy men without cardiovascular risk factors were selected for the study. The ages of the 10 men ranged from 21 to 25 years. Blood samples taken for the purposes of the study were evaluated by flow cytometry, as previously described (Scheubel R. J., Zorn H., Silber R. E., Kuss O., Morawietz H., Holtz J., Simm A. Age-dependent depression in circulating endothelial cell progenitor cells in patients undergoing coronary artery bypass grafting. J Am Coll Cardiol. 42, 2073-2080,2003).
Control samples from each subject were examined to validate the study. The samples were obtained in triplicate, on different days and at different hours of the day and examined. No significant variability was found among the subjects.
Subjects were randomly allocated to two groups of five subjects. The first group received Vardenafil 20 mg on the first visit and a placebo one week later. The second group received the placebo on the first visit and Vardenafil 20 mg one week later. […]
Analysis was performed on a sample of 150 μl of peripheral blood extracted from each subject. […] After incubation, the cells were lysed in NH4Cl lysis buffer, washed twice with PBS 1% FCS and then analysed by flow cytometry.
With reference to FIG. 1, forward and side scatter gates were set to include all viable mononuclear cells; into this gate 500,000 events were acquired. […] Cells were scored using a FACSCalibur analyzer (Becton Dickinson Immunocytometry Systems, San Jose, Calif., USA) and data processing using the CellQuest software programmes (Becton Dickinson Immunocytometry Systems).
The percentage of EPCs, in each subject, was calculated by dividing the number of double positive events by the number of total events. The total number of EPCs per volume, of each subject, per volume was calculated by multiplying the percentage of EPCs with the leukocyte count. The data is expressed as mean±SD. Comparisons of the total number of EPCs at baseline, and at two and four hours after the administration of either Vardenafil 20 mg or the placebo were analyzed by the Student's t-test for matched data. […]

Row | Structure (SMILES) | bone marrow density (indicated by a decrease in adipose tissue percentage) [1] | lymphomonocytic component count [1] | mean increase in EPCs after Vardenafil administration ([2]; four hours after Vardenafil 20 mg vs baseline) [EPCs/Ml] | percentage increase of circulating EPCs with respect to baseline ([2]; four hours after Vardenafil 20 mg) [%] | concentration of EPCs ([2]; four hours after administration of Vardenafil 20 mg, baseline 1849.7±384.3, p<0.001) [EPC/mL]
1 | CCCOc1ccc(S(=O)(=O)NCCC2CCCN2C)cc1-c1nc2c(CCC)nn(C)c2c(=O)[nH]1 (centres unmarked) [DA-8159] | increase | increase | – | – | –
2 | CCCc1nc(C)c2c(=O)[nH]c(-c3cc(S(=O)(=O)N4CCN(CC)CC4)ccc3OCC)nn12 [Vardenafil] | – | – | 795.7±176.7 | 44.1±16.5 | 2645.4±509.5
